# Experimental data from patent US20190167640A1, “METHODS FOR TREATMENT OF MUSCULAR DYSTROPHIES” (Akashi Therapeutics, Inc., priority 2013, published 2019).
# Entries after “also recorded” stand apart in the source; their conditions may differ.
# Key:
# [1] = system: diaphragm and GC muscle of exercised mdx mice; experiment: Histology and morphometric analysis of gastrocnemius (GC) muscle and diaphragm; format: in vivo; conditions: preliminary morphometric analysis (FIG. 23)
# Experimental: (§1) The chronic exercise consisted of 30 min running on horizontal treadmill at 12 m/min twice a week. Drug treatment started one day before the exercise protocol. At least 4 weeks of exercise were performed before starting the ex vivo experiments. In vivo parameters were monitored weekly throughout. Age of the mice at the time of ex-vivo experiments: 9-12 weeks. The effectiveness of the test compounds was then evaluated ex vivo for: • Mechanical properties of EDL muscle and diaphragm strips by isometric contraction • Mechanical threshold of EDL muscle, i.e. the voltage threshold for fiber contraction, as an index of excitation-contraction coupling mechanism and calcium homeostasis (two microelectode “point” voltage clamp method) • Cable parameters and macroscopic ionic conductance (two microelectrode current clamp recordings) • Spectrophotometric determination of plasma level of creatine kinase (CK), as an index of sarcolemmal damage, lactate dehydrogenase (LDH) as an index of metabolic sufferance, reactive oxygen species, as a marker of oxidative stress • Morphometric analysis of gastrocnemious (GC) muscle and diaphragm
# Representative pictures of histology profile of diaphragm and GC muscles in the various experimental conditions are shown in FIG. 22.
# [2] = system: EDL myofibers of exercised mdx mice; experiment: Mechanical threshold of EDL muscle (two microelectrode point voltage clamp); format: in vivo; conditions: for mechanical threshold: potential (voltage threshold) for fiber contraction of EDL myofibers: Compound (I) 30 mg/kg, nandrolone 5 mg/kg, PDN 1 mg/kg, 6 days/week, 4 weeks, all pulse durations; for rheobase voltage of EDL muscles / time constant to reach the rheobase, EDL myofibers: same treatments; for rheobase voltage of EDL muscles: calculated from fit of strength-duration curve; for time constant to reach the rheobase, EDL myofibers: from fit of strength-duration curve
# Experimental: as §1
# Mechanical threshold (MT) is an electrophysiological index of excitation contraction-coupling and of calcium homeostasis (De Luca et al., JPET 2003; Fraysse et al., Neurobiol. Dis., 2004). The application of depolarizing voltage steps of increasing durations shifts the contraction for fiber contraction toward more negative potential until a constant rheobase voltage is reached. The rheobase voltage represents the voltage at which the calcium that is released from the sarcoplasmis reticulum and the calcium reuptaken are at the steady-state. A shift of rheobase voltage toward more negative potential, as occurring in dystrophic mdx EDL myofibers, is indicative of more calcium being available for contraction, either resulting from greater release or slower reuptake or higher basal cytosolic levels.
# In FIG. 30A, the data, expressed as the means±S.E.M. from 14 to 30 values from 2 to 5 preparations, show the voltages for the contraction of EDL myofibres (mechanical threshold) at increasing pulse duration in wild-type mice (WT, black circles) and in mdx mice treated with either vehicle (corn oil and water; Mdx+VTOT, white circles), 30 mg/kg Compound (I) (white triangles), 5 mg/kg nandrolone (upside-down black triangles) or 1 mg/kg PDN (white rhombus). The drugs were given 6 days per week. […] For some data points, the standard error bar is not visible because it is smaller than the symbol size. In FIGS. 30B and 30C, the rheobase voltage, in mV and the time constant, in ms, with relative standard errors, have been calculated from the fit of data points of the voltage-duration curves in A. In FIG. 30D, the total resting membrane ionic conductances (gm) in μS/cm^2 of EDL muscle fibres of the same experimental groups described in A are shown. The bars represent the means±SEM from the number of 3-5 prep/25-37 fibres. For each parameter, the significant differences between groups were evaluated using ANOVA for multiple comparisons (F values) and the Bonferroni t-test post hoc correction. Significant differences were found for rheobase voltage (F>4; p<0.003) and gm (F>7; p<0.0002).
# In FIG. 31A, the data, expressed as the means±S.E.M. from 27 to 41 values from 3 preparations, show the voltages for the contraction of EDL myofibres (mechanical threshold) at increasing pulse duration in wild type mice (WT, black circles) and in mdx mice treated with either corn oil (Mdx+V1, white circles) or Compound (I) at 0.3 (white square), 3 (black square) or 30 mg/kg (white triangles). The drugs were given 6 days per week. […] For some data points, the standard error bar is not visible because it is smaller than the symbol size. […]
# [3] = system: diaphragm strips of exercised mdx mice; experiment: Isometric contraction of diaphragm strips after in vivo treatment; conditions: for twitch tension of diaphragm strips: exercised mdx mice, Compound (I) 30 mg/kg s.c., nandrolone 5 mg/kg s.c., PDN 1 mg/kg i.p., 6 days/week, 4-6 weeks; for fatigue of diaphragm (drop of force after 5 repetitive tetani) / tetanic force of diaphragm: same treatments; for fatigue of diaphragm (drop of force after 5 repetitive tetani): 5 tetani at 100 Hz, 5 sec intervals; for tetanic force of diaphragm: vehicle-treated exercised mdx groups pooled together (FIG. 2B)
# Experimental: Compound (I) and nandrolone were dissolved in 10% Ethanol/90% Corn Oil (Sigma-Aldrich) in order to have the final dosage needed in the volume of 0.1 ml/10 g body weight. PDN (from the commercial formulation URBASON) was diluted sterile water for injection (0.1 ml/10 g body weight). 40 mdx mice 5-6 weeks old (Charles River Italy for Jackson Lab) were first (at the beginning of the exercise/treatment period (Time 0)) randomized in groups homogeneous for body weight, fore limb strength and normalized force (fore limb strength/body weight), as follows: • 7 SEDENTARY MDX+VEHICLE (ethanol and corn oil) • 7 UNTREATED EXERCISED MDX+VEHICLE (ethanol and corn oil) • 9 EXERCISED MDX+Compound (I) 30 mg/kg • 8 EXERCISED MDX+Nandrolone 5 mg/kg • 3 EXERCISED MDX+VEHICLE (sterile water) • 6 EXERCISED MDX+PDN 1 mg/kg
# The duration of the treatment was 4-6 weeks. At the end of 4 weeks, 34 mice remained on the protocol, as follows: • 7 SEDENTARY MDX+VEHICLE (ethanol and corn oil) • 7 UNTREATED EXERCISED MDX+VEHICLE (ethanol and corn oil) • 6 EXERCISED MDX+Compound (I) 30 mg/kg • 5 EXERCISED MDX+Nandrolone 5 mg/kg • 3 EXERCISED MDX+VEHICLE (sterile water) • 6 EXERCISED MDX+PDN 1 mg/kg
# as §1
# Standard isometric contraction measurements on both EDL muscle and diaphragm strips were obtained by electric field stimulation via two axial platinum wires. For each preparation, a preliminary stabilization procedure (for proper temperature equilibration and relaxation after handling) was followed by the determination of the optimal resting length, i.e. the resting tension that allowed the maximal tension to be elicited by 40V depolarizing steps of 0.2ms duration. The preparations were then allowed to rest for about 30 min before starting the recording procedure.
# Twitch tension: 5 single twitches elicited by pulses of 40 V and 0.2 ms (every 30 sec)→determination of maximal twitch tension and contraction kinetic (time to peak and half relaxation time);
# Force frequency curve: 450 ms trains of 0.2 ms 40V pulses from 10 to 140 Hz→determination of maximal tetanic tension and frequency for half-maximal activation (Hz50) Fatigue: 5 tetani at 100 Hz (450 ms) and 5 sec intervals→determination of % drop of tension
# [4] = system: EDL myofibers of exercised mdx mice; experiment: Cable parameters and macroscopic ionic conductance of EDL myofibers (two microelectrode current clamp); format: in vivo; conditions: Compound (I) 30 mg/kg, nandrolone 5 mg/kg, PDN 1 mg/kg, 6 days/week, 4-6 weeks
# Experimental: as §1
# Passive cable properties are calculated for the spatial and temporal changes of membrane potential in response to a hyperpolarizing square current pulses. […]
# [5] = system: EDL muscle of exercised mdx mice; experiment: Isometric and eccentric contraction of EDL muscle after in vivo treatment; conditions: same treatments; for fatigue of EDL (drop during the first 5 tetani): tetani at 5 sec intervals
# exercised mdx mice = experiment: Spectrophotometric determination of plasma creatine kinase, lactate dehydrogenase and reactive oxygen species; format: in vivo; conditions: same treatments
# Experimental: as §1
# A marked elevation of plasma creatine kinase is a typical diagnostic marker of muscular dystrophy. In parallel an increase in lactate dehydrogenase is also observed as a sign of metabolic sufferance while an increase on reactive oxygen species can occur as a result of ongoing oxidative stress. Generally, these biochemical indices are further aggravated by the exercise protocol. However, in the present study all the three parameters CK, LDH and ROS were particularly altered in the sedentary mdx mice and therefore no remarkable effect of exercise was observed.
SMILES,fiber area of both normal and centronucleated fibers [1],mechanical threshold: potential (voltage threshold) for fiber contraction of EDL myofibers [2],rheobase voltage of EDL muscles [2],"time constant to reach the rheobase, EDL myofibers [2]",twitch tension of diaphragm strips [3],fatigue of diaphragm (drop of force after 5 repetitive tetani) [3],tetanic force of diaphragm [3],membrane resistance (Rm) and total membrane ionic conductance (gm) of EDL myofibers [4],frequency for half-maximal activation (Hz50) of EDL [5],twitch/tetanus ratio of EDL [5],fatigue of EDL (drop during the first 5 tetani) [5],creatine kinase (CK) (exercised mdx mice),lactate dehydrogenase (LDH) (exercised mdx mice),twitch tension of EDL [5],"mechanical threshold: voltage threshold values of EDL myofibres ([2]; Compound (I) at 0.3, 3 or 30 mg/kg, 6 days per week, second study (up to 12 weeks), vs vehicle-treated mdx)"
"C[C@H]1C[C@@H]2[C@H]([C@@H](O)C[C@@]3(C)[C@H]2CC[C@]3(O)C(=O)CO)[C@@]2(C)C=CC(=O)C=C12 [PDN, α-methyl-prednisolone]",increase,less effective than Compound (I); also recorded: significantly more positive,values intermediate between untreated mdx and weight,effect of Compound (I) on this parameter was greater than that of nandrolone and PDN,the two anabolic compounds exerted a greater protection than PDN,protection was observed,"significantly greater than those of untreated, although still lower than weight ones",effect consistent with that observed in previous studies,no significant effects,slight but not significant decrease,partial recovery,lack of effect,lack of effect,–,–
C[C@]12CC[C@H]3[C@@H](CCC4=CC(=O)CC[C@@H]43)[C@@H]1CC[C@@H]2O [nandrolone],increase,less effective than Compound (I); also recorded: significantly more positive,values intermediate between untreated mdx and weight,effect of Compound (I) on this parameter was greater than that of nandrolone and PDN,greater than those of untreated ones and no more significantly different with respect to those of weight,–,"significantly greater than those of untreated, although still lower than weight ones",–,no significant effects,no effect,partial recovery,–,–,tendency toward an increase,–
CN1C(=O)N(c2ccc(C#N)c(C(F)(F)F)c2)C(=O)[C@@]1(CO)c1ccccc1 [Compound (I)],–,significant shift of the potential for fiber contraction toward weight values; also recorded: significantly more positive,almost overlapping that of weight,remarkably shorter than those of untreated exercised and not significantly different with respect to that of weight,greater than those of untreated ones and no more significantly different with respect to those of weight,protection was observed,"significantly greater than those of untreated, although still lower than weight ones",effects comparable to that of PDN,no significant effects,no effect,–,–,"slight, but not significant reduction",–,significantly more positive
